The test system of this data set is CCRIS mutagenicity, Ames/micronucleus/aberration tests. Put plainly: CCRIS mutagenicity studies.
Where [1] appears, read: Test System: AMES SALMONELLA TYPHIMURIUM, Strain/Indicator: TA98, Metabolic Activation: NONE, Method: STANDARD PLATE.
Setting [2] is: Test System: AMES SALMONELLA TYPHIMURIUM, Strain/Indicator: TA98, Metabolic Activation: RAT, LIVER, S-9, AROCLOR 1254, Method: STANDARD PLATE.
[3] abbreviates: Test System: AMES SALMONELLA TYPHIMURIUM, Strain/Indicator: TA98, Metabolic Activation: NONE, Method: PREINCUBATION
Where [4] appears, read: Test System: AMES SALMONELLA TYPHIMURIUM, Strain/Indicator: TA100, Metabolic Activation: NONE, Method: PREINCUBATION
The mark [5] stands for this setting: Test System: MOUSE LYMPHOMA, Strain/Indicator: L5178Y (TK+/TK-), Metabolic Activation: NONE, Method: SUSPENSION/PLATE.
Setting [6] is: Test System: MOUSE LYMPHOMA, Strain/Indicator: L5178Y (TK+/TK-), Metabolic Activation: RAT, LIVER, S-9, AROCLOR 1254, Method: SUSPENSION/PLATE.
Setting [7] is: Test System: AMES SALMONELLA TYPHIMURIUM, Strain/Indicator: TA100, Metabolic Activation: NONE, Method: STANDARD PLATE.

Each structure is given as a SMILES string. Active and inactive are the calls of the source. How the calls were made is not given here.

With `O=[N+]([O-])c1cc2c([nH]c3ccccc32)c([N+](=O)[O-])c1O`, the mutagenic call reads like this: (Test System: AMES SALMONELLA TYPHIMURIUM, Strain/Indicator: TA98(NR), Metabolic Activation: NONE, Method: STANDARD PLATE) “active; positive”; (Test System: AMES SALMONELLA TYPHIMURIUM, Strain/Indicator: TA98(NR), Metabolic Activation: RAT, LIVER, S-9, AROCLOR 1254, Method: STANDARD PLATE) “active; positive”; under setting [1], “active; positive”; under setting [2], “active; positive”.

For the compound `Cc1cnc2ccc3c(ncn3C)c2n1`, the mutagenic call runs as follows: under setting [3], “inactive; negative”; (Test System: AMES SALMONELLA TYPHIMURIUM, Strain/Indicator: TA98, Metabolic Activation: RAT, LIVER, S-9, AROCLOR 1254, Method: PREINCUBATION) “inactive; negative”; under setting [4], “inactive; negative”; (Test System: AMES SALMONELLA TYPHIMURIUM, Strain/Indicator: TA100, Metabolic Activation: RAT, LIVER, S-9, AROCLOR 1254, Method: PREINCUBATION) “inactive; negative”.

Take `C/C=C(\C)C=O`: the mutagenic call reads like this: under setting [5], “active; positive. reevaluation of results: inconclusive”; under setting [6], “inactive; negative. reevaluation of results: negative”.

Turning to `CCOP(=O)(OCC)Oc1nc(Cl)c(Cl)cc1Cl`, the mutagenic call was “inactive; negative” under setting [1]; “inactive; negative” (Test System: AMES SALMONELLA TYPHIMURIUM, Strain/Indicator: TA98, Metabolic Activation: RAT, LIVER, S-9, Method: STANDARD PLATE); “inactive; negative” under setting [7]; “inactive; negative” (Test System: AMES SALMONELLA TYPHIMURIUM, Strain/Indicator: TA100, Metabolic Activation: RAT, LIVER, S-9, Method: STANDARD PLATE).

Consider `O=[N+]([O-])c1ccc2ncccc2c1`, for which the mutagenic call under setting [3] is “active; positive”; the mutagenic call (Test System: AMES SALMONELLA TYPHIMURIUM, Strain/Indicator: TA98, Metabolic Activation: RAT, LIVER, S-9, Method: PREINCUBATION) is “active; positive”; the mutagenic call under setting [4] was “active; positive”; the mutagenic call (Test System: AMES SALMONELLA TYPHIMURIUM, Strain/Indicator: TA100, Metabolic Activation: RAT, LIVER, S-9, Method: PREINCUBATION) is “active; positive”.

Consider `CC/C(C)=N\O`, for which the mutagenic call (Test System: AMES SALMONELLA TYPHIMURIUM, Strain/Indicator: TA97, Metabolic Activation: HAMSTER LIVER S-9, AROCLOR 1254, 30%, Method: PREINCUBATION) is “inactive; negative”; the mutagenic call (Test System: AMES SALMONELLA TYPHIMURIUM, Strain/Indicator: TA97, Metabolic Activation: NONE, Method: PREINCUBATION) is “inactive; negative”; the mutagenic call (Test System: AMES SALMONELLA TYPHIMURIUM, Strain/Indicator: TA97, Metabolic Activation: RAT LIVER S-9, AROCLOR 1254, 30%, Method: PREINCUBATION) was “inactive; negative”; the mutagenic call (Test System: AMES SALMONELLA TYPHIMURIUM, Strain/Indicator: TA98, Metabolic Activation: HAMSTER LIVER S-9, AROCLOR 1254, 30%, Method: DESICCATOR) was “inactive; negative”; the mutagenic call (Test System: AMES SALMONELLA TYPHIMURIUM, Strain/Indicator: TA98, Metabolic Activation: HAMSTER LIVER S-9, AROCLOR 1254, 30%, Method: PREINCUBATION) is “inactive; negative”; the mutagenic call (Test System: AMES SALMONELLA TYPHIMURIUM, Strain/Indicator: TA98, Metabolic Activation: HAMSTER, LIVER, S-9, AROCLOR 1254, Method: STANDARD PLATE) is “inactive; negative”. Further, the mutagenic call is “inactive; negative” (Test System: AMES SALMONELLA TYPHIMURIUM, Strain/Indicator: TA98, Metabolic Activation: NONE, Method: DESICCATOR); “inactive; negative” under setting [3]; “inactive; negative” under setting [1]; “inactive; negative” (Test System: AMES SALMONELLA TYPHIMURIUM, Strain/Indicator: TA98, Metabolic Activation: RAT LIVER S-9, AROCLOR 1254, 30%, Method: DESICCATOR); “inactive; negative” (Test System: AMES SALMONELLA TYPHIMURIUM, Strain/Indicator: TA98, Metabolic Activation: RAT LIVER S-9, AROCLOR 1254, 30%, Method: PREINCUBATION); “inactive; negative” under setting [2]. Also, the mutagenic call reads like this: (Test System: AMES SALMONELLA TYPHIMURIUM, Strain/Indicator: TA100, Metabolic Activation: HAMSTER LIVER S-9, AROCLOR 1254, 30%, Method: DESICCATOR) “inactive; negative”; (Test System: AMES SALMONELLA TYPHIMURIUM, Strain/Indicator: TA100, Metabolic Activation: HAMSTER LIVER S-9, AROCLOR 1254, 30%, Method: PREINCUBATION) “inactive; negative”; (Test System: AMES SALMONELLA TYPHIMURIUM, Strain/Indicator: TA100, Metabolic Activation: HAMSTER, LIVER, S-9, AROCLOR 1254, Method: STANDARD PLATE) “inactive; negative”; (Test System: AMES SALMONELLA TYPHIMURIUM, Strain/Indicator: TA100, Metabolic Activation: NONE, Method: DESICCATOR) “inactive; negative”; under setting [4], “inactive; negative”; under setting [7], “inactive; negative”. For the same compound, the mutagenic call reads like this: (Test System: AMES SALMONELLA TYPHIMURIUM, Strain/Indicator: TA100, Metabolic Activation: RAT LIVER S-9, AROCLOR 1254, 30%, Method: DESICCATOR) “inactive; negative”; (Test System: AMES SALMONELLA TYPHIMURIUM, Strain/Indicator: TA100, Metabolic Activation: RAT LIVER S-9, AROCLOR 1254, 30%, Method: PREINCUBATION) “inactive; negative”; (Test System: AMES SALMONELLA TYPHIMURIUM, Strain/Indicator: TA100, Metabolic Activation: RAT, LIVER, S-9, AROCLOR 1254, Method: STANDARD PLATE) “inactive; negative”; (Test System: AMES SALMONELLA TYPHIMURIUM, Strain/Indicator: TA1535, Metabolic Activation: HAMSTER LIVER S-9, AROCLOR 1254, 30%, Method: PREINCUBATION) “active; positive”; (Test System: AMES SALMONELLA TYPHIMURIUM, Strain/Indicator: TA1535, Metabolic Activation: HAMSTER, LIVER, S-9, AROCLOR 1254, Method: STANDARD PLATE) “inactive; negative”; (Test System: AMES SALMONELLA TYPHIMURIUM, Strain/Indicator: TA1535, Metabolic Activation: NONE, Method: PREINCUBATION) “inactive; negative”. The mutagenic call is, setting by setting: (Test System: AMES SALMONELLA TYPHIMURIUM, Strain/Indicator: TA1535, Metabolic Activation: NONE, Method: STANDARD PLATE) “inactive; negative”; (Test System: AMES SALMONELLA TYPHIMURIUM, Strain/Indicator: TA1535, Metabolic Activation: RAT LIVER S-9, AROCLOR 1254, 30%, Method: PREINCUBATION) “inactive; negative”; (Test System: AMES SALMONELLA TYPHIMURIUM, Strain/Indicator: TA1535, Metabolic Activation: RAT, LIVER, S-9, AROCLOR 1254, Method: STANDARD PLATE) “inactive; negative”; (Test System: AMES SALMONELLA TYPHIMURIUM, Strain/Indicator: TA1537, Metabolic Activation: HAMSTER, LIVER, S-9, AROCLOR 1254, Method: STANDARD PLATE) “inactive; negative”; (Test System: AMES SALMONELLA TYPHIMURIUM, Strain/Indicator: TA1537, Metabolic Activation: NONE, Method: STANDARD PLATE) “inactive; negative”; (Test System: AMES SALMONELLA TYPHIMURIUM, Strain/Indicator: TA1537, Metabolic Activation: RAT, LIVER, S-9, AROCLOR 1254, Method: STANDARD PLATE) “inactive; negative”. For the same compound, the mutagenic call was “inactive; negative” (Test System: AMES SALMONELLA TYPHIMURIUM, Strain/Indicator: TA1538, Metabolic Activation: HAMSTER, LIVER, S-9, AROCLOR 1254, Method: STANDARD PLATE); “inactive; negative” (Test System: AMES SALMONELLA TYPHIMURIUM, Strain/Indicator: TA1538, Metabolic Activation: NONE, Method: STANDARD PLATE); “inactive; negative” (Test System: AMES SALMONELLA TYPHIMURIUM, Strain/Indicator: TA1538, Metabolic Activation: RAT, LIVER, S-9, AROCLOR 1254, Method: STANDARD PLATE); “active; positive. reevaluation of results: positive” under setting [5]; “inactive; negative. reevaluation of results: negative” under setting [6].
